Legend:
[1] = set-up: method as in PMID 9827549; settings: rat; oral 50 μmol/kg (~14.3 mg/kg) in propyleneglycol; cited from earlier work
PC-3 cells = experiment: Scratch wound healing assay in PC-3 cells; assay type: cell-based, human; settings: 10 and 30 μM; 48 h post-wound
Procedure: PC-3 cells were cultured in a 96-well plate until they reached ~80% confluence as a monolayer and then the cell layer was wounded using a 96-Well WoundMaker (Essen BioScience, MI) and washed twice with fresh serum free media. The cells were incubated with serum free medium, and images of the wounds were taken using the IncuCyte ZOOM (Essen BioScience, MI). The wound recovery properties of test compounds were analyzed by the IncuCyte software.

FRT cells = experiment: Intracellular calcium measurement (Fluo-4) in FRT cells; assay type: cell-based, rat; settings: 30 and 100 μM, 20 min pretreatment, 100 μM ATP
Procedure: Intracellular calcium levels were monitored using Fluo-4 NW calcium assay kit (Invitrogen, Carlsbad, CA) as per the manufacturer's protocol in FRT and PC-3 cells. Briefly, the cells were cultured in a 96 well plate and incubated with 100 μL assay buffer including Fluo-4 NW. After 1 hour incubation, Fluo-4 fluorescence was measured with a FLUOstar Omega microplate reader equipped with syringe pumps and custom Fluo-4 excitation/emission filters (485/538 nm). Intracellular calcium increase was induced by application of 100 μM ATP.

ANO1 = molecular target: T1, ANO1 (Homo sapiens, UniProt Q5XXA6, DEL476-501); experiment: Whole-cell patch-clamp in ANO1-expressing FRT cells; assay type: cell-based; settings: 100 μM ATP, read-out: Inhibition of ANO1 chloride currents
T1 sequence (Q5XXA6 with tags, fused parts or gaps isoform Q5XXA6-5 DEL539-564): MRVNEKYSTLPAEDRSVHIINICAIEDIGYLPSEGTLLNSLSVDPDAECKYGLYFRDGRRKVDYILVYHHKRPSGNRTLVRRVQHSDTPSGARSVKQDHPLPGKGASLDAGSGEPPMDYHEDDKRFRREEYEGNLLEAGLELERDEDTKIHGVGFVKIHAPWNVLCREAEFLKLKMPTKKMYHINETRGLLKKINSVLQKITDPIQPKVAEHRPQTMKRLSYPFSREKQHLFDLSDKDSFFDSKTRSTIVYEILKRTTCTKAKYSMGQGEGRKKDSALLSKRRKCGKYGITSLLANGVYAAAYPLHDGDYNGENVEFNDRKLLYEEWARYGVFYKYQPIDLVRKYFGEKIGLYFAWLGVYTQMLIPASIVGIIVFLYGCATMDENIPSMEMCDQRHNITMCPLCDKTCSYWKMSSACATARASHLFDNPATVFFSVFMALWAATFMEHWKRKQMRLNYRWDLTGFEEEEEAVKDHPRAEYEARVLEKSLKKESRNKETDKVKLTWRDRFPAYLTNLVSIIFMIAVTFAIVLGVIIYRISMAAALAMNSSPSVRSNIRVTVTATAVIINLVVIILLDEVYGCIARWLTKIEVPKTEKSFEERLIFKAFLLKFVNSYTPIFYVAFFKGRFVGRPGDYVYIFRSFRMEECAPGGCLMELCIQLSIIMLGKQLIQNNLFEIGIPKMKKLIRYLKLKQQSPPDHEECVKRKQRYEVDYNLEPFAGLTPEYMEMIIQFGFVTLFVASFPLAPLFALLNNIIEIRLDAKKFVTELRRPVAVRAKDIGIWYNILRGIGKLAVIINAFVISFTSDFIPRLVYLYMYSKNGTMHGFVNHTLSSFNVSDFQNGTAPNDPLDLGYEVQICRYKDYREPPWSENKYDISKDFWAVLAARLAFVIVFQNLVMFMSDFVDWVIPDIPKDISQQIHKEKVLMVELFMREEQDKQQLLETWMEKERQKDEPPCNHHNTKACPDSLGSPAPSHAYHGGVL
Procedure: Patch-clamp recordings were performed on ANO1-expressing FRT cells using the whole-cell recording configuration. The bath solution contained (in mM): 140 NMDG-Cl, 1 CaCl2, 1 MgCl2, 10 glucose and 10 HEPES (pH 7.4). The pipette solution contained (in mM): 130 CsCl, 0.5 EGTA, 1 MgCl2, 1 Tris-ATP, and 10 HEPES (pH 7.2). Pipettes were pulled from borosilicate glass and had resistances of 3–5 MΩ after fire polishing. Seal resistances were between 3 and 10 GΩ. The liquid junction potential (~2.4 mV) was not corrected. After establishing the whole-cell configuration, whole-cell capacitance and series resistance were compensated with the amplifier circuitry. After establishing the whole-cell configuration, ANO1 was activated by ATP (100 μM). Whole-cell currents were elicited by applying hyperpolarizing and depolarizing voltage pulses from a holding potential of 0 mV to potentials between -80 mV and +80 mV in steps of 20 mV. Recordings were made at room temperature using an Axopatch-200B (Axon Instruments, Union City, CA). Currents were digitized and analyzed using a Digidata 1440A converter (Axon Instruments), and pCLAMP 10.2 software (Molecular Devices, Sunnyvale, CA). Currents were low-pass filtered at 1 kHz and sampled at 5 kHz.

Compound: O=c1cc(-c2ccc(O)c(O)c2)oc2cc(O)cc(O)c12 [luteolin]
- Maximum plasma level of free luteolin [1]: ~ 3.08 μM
- Maximum plasma level of total luteolin (free luteolin and its conjugates) [1]: ~ 15.5 μM
- Inhibition of wound recovery, high versus low ANO1 expressing PC-3 cells (PC-3 cells): more strongly inhibited
- Effect on ATP-induced cytosolic calcium increase (FRT cells): not affected
- inhibition at 10 µM (ANO1; 10 μM): 55.3 ± 2.8%
- inhibition at 100 µM (ANO1; 100 μM): 99.2 ± 0.2%
